# pIC50: −log10 of the molar value.
# System: HT-29 cells
# Test: HT-29 necroptosis cell viability assay (TNF-α/SMAC mimetic/zVAD-FMK, CellTiter-Glo)
# Assay type: cell-based
# Settings: Homo sapiens, HT-29, HT-29 cells, necroptosis induced by TNF-α/SMAC mimetic/zVAD-FMK, CellTiter-Glo; read-out: Activity (IC50 class)
# Outline: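 Necroptosis was triggered by TNF-α (10 ng/ml), SMAC mimetic (6 μM) and zVAD-FMK (10 μM) in serum-free medium during 20 h compound exposure (10 concentrations, threefold steps) of HT-29 cells. IC50 from duplicate dose-responses uses CellTiter-Glo ATP luminescence as viability read-out.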
row,Structure (SMILES),pIC50
1,"Cc1nc(N2CC(C)(C#N)C2)cn1Cc1ccc(-n2ncn(Cc3c(F)cccc3F)c2=O)cc1 [Example 664, 1-(1-(4-(4-(2,6-difluorobenzyl)-5-oxo-4,5-dihydro-1H-1,2,4-triazol-1-yl)benzyl)-2-methyl-1H-imidazol-4-yl)-3-methylazetidine-3-carbonitrile]",5.00 to 6.00

# Same assay, conditions: Homo sapiens, HT-29, HT-29 necroptosis cell viability assay; class symbols for IC50; read-out: Activity
row,Structure (SMILES),pIC50
1,"C[C@H](O)C1CN(c2cc(Oc3ccc(-n4ncn(Cc5c(F)cccc5F)c4=O)cc3F)c(F)cn2)C1 [Example 556, (S)-4-(2,6-difluorobenzyl)-2-(3-fluoro-4-((5-fluoro-2-(3-(1-hydroxyethyl)azetidin-1-yl)pyridin-4-yl)oxy)phenyl)-2,4-dihydro-3H-1,2,4-triazol-3-one]",> 7.00
2,"Cc1nc(C(C)(C)O)sc1Oc1ccc(-n2ncn(Cc3c(F)cccc3F)c2=O)cc1Cl [Example 583, 2-(3-chloro-4-((2-(2-hydroxypropan-2-yl)-4-methylthiazol-5-yl)oxy)phenyl)-4-(2,6-difluorobenzyl)-2,4-dihydro-3H-1,2,4-triazol-3-one]",> 7.00
3,"Cc1nc(C2(N)COC2)sc1Oc1ccc(-n2ncn(Cc3c(F)cccc3F)c2=O)cc1F [Example 614, 2-(4-((2-(3-aminooxetan-3-yl)-4-methylthiazol-5-yl)oxy)-3-fluorophenyl)-4-(2,6-difluorobenzyl)-2,4-dihydro-3H-1,2,4-triazol-3-one]",> 7.00
4,"CNC(=O)c1nc(C)c(Oc2ccc(-n3ncn(Cc4cnccc4Cl)c3=O)cc2F)s1 [Example 599, 5-(4-(4-((4-chloropyridin-3-yl)methyl)-5-oxo-4,5-dihydro-1H-1,2,4-triazol-1-yl)-2-fluorophenoxy)-N,4-dimethylthiazole-2-carboxamide]",> 7.00
5,"CCOC(=O)c1c(C)nc(Oc2ccc(-n3ncn(Cc4c(F)cccc4F)c3=O)cc2F)n1C [Example 182, ethyl 2-(4-(4-(2,6-difluorobenzyl)-5-oxo-4,5-dihydro-1H-1,2,4-triazol-1-yl)-2-fluorophenoxy)-1,4-dimethyl-1H-imidazole-5-carboxylate]",6.00 to 7.00
6,"CC1(OC(F)(F)F)CN(c2cc(Oc3ccc(-n4ncn(Cc5c(F)cccc5F)c4=O)cc3F)c(Cl)cn2)C1 [Example 506, 2-(4-((5-chloro-2-(3-methyl-3-(trifluoromethoxy)azetidin-1-yl)pyridin-4-yl)oxy)-3-fluorophenyl)-4-(2,6-difluorobenzyl)-2,4-dihydro-3H-1,2,4-triazol-3-one]",> 7.00

# Same assay, conditions: Homo sapiens, HT-29, HT-29 necroptosis cell viability, IC50 class symbols; read-out: Activity
row,Structure (SMILES),pIC50
1,"NC1CN(c2cc(Oc3ccc(-n4ncn(Cc5c(F)cccc5F)c4=O)cc3)ccn2)C1 [Example 322, 2-(4-((2-(3-aminoazetidin-1-yl)pyridin-4-yl)oxy)phenyl)-4-(2,6-difluorobenzyl)-2,4-dihydro-3H-1,2,4-triazol-3-one]",6.00 to 7.00
2,"O=c1n(Cc2c(F)cccc2F)cnn1-c1ccc(Oc2ccnc(NC3COC3)c2)cc1 [Example 343, 4-(2,6-difluorobenzyl)-2-(4-((2-(oxetan-3-ylamino)pyridin-4-yl)oxy)phenyl)-2,4-dihydro-3H-1,2,4-triazol-3-one]",5.00 to 6.00
3,"CC1(N)CN(c2nccc(Oc3ccc(-n4ncn(Cc5c(F)cccc5F)c4=O)cc3Cl)c2F)C1 [Example 423, 2-(4-((2-(3-amino-3-methylazetidin-1-yl)-3-fluoropyridin-4-yl)oxy)-3-chlorophenyl)-4-(2,6-difluorobenzyl)-2,4-dihydro-3H-1,2,4-triazol-3-one]",> 7.00
4,"O=c1n(Cc2c(F)cccc2F)cnn1-c1ccc(Oc2ccnc(N3CCC4(CCOC4)C3)c2)cc1 (stereo not shown) [Example 330, 2-(4-((2-(2-oxa-7-azaspiro[4.4]nonan-7-yl)pyridin-4-yl)oxy)phenyl)-4-(2,6-difluorobenzyl)-2,4-dihydro-3H-1,2,4-triazol-3-one]",> 7.00

# Same assay, conditions: Homo sapiens; HT-29 cells stimulated with TNF-α (10 ng/ml), SMAC mimetic (6 μM) and zVAD-FMK (10 μM); 20 hours; CellTiter-Glo ATP luminescence; geometric mean IC50 from 10 points; read-out: Activity
row,Structure (SMILES),pIC50
1,"Cc1nc(C(N)=O)sc1Oc1ccc(-n2ncn(Cc3cnccc3Cl)c2=O)cc1F [Example 31, 5-(4-(4-((4-chloropyridin-3-yl)methyl)-5-oxo-4,5-dihydro-1H-1,2,4-triazol-1-yl)-2-fluorophenoxy)-4-methylthiazole-2-carboxamide]",> 7.00
2,"Cc1nc(C(N)=O)sc1Oc1ccc(-n2nc3n(c2=O)[C@H](c2cncc(F)c2)CC3)cc1F (single isomer, unassigned) [Example 700]",> 7.00

# From patent US20250179061A1 (SIRONAX LTD., priority 2022, published 2025)
